In paper PMC11460631, “Inhibition of transient receptor potential vanilloid 3 channels by antimalarial hydroxychloroquine alleviates TRPV3-dependent dermatitis” (The Journal of Biological Chemistry, 2024):
Residue numbers refer to the chain shown, from its start.

Key:
TRPV3 = target: T1, TRPV3 (Homo sapiens, UniProt Q8NET8); experiment: Single-channel recordings of TRPV3 in the inside-out configuration; format: cell-based; conditions: −80 mV
T1 construct: YFP or GFP; expressed in transfected cells; host or cells: HEK293T
T1 sequence (Q8NET8 1-790): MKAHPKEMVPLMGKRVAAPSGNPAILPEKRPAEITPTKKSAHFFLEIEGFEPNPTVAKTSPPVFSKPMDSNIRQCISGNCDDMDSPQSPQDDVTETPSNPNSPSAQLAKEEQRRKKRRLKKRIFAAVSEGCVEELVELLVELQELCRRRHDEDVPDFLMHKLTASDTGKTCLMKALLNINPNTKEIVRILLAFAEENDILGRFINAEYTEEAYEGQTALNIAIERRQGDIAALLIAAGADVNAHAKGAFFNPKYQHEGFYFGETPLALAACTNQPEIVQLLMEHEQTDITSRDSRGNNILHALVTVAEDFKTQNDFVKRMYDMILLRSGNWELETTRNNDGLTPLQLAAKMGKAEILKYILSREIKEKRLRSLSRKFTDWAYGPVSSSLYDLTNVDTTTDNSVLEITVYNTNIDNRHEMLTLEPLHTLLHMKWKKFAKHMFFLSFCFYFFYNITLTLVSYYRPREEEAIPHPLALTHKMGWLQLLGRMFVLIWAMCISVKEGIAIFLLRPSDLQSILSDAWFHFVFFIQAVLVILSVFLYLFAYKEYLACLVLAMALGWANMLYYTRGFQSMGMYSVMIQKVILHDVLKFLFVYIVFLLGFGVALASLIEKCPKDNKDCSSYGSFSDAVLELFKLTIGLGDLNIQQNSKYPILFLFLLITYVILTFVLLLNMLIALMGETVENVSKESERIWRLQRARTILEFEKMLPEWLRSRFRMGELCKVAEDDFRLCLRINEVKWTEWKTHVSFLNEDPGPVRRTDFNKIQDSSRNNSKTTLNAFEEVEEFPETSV
Protocol: HEK293T cells are cultured using Dulbecco's modified Eagle's medium containing 10% fetal bovine serum and 1% penicillin-streptomycin in a cell incubator with 5% CO2 at 37 °C. Plasmids of murine TRPV1, TRPV4, TRPM8, and human TRPV3, TRPA1 are labeled with YFP or GFP as indicators for subsequent electrophysiological recordings. Complementary DNA constructs of ion channels were transiently transfected with Lipofectamine 3000 (Invitrogen). And 12 to 18 h after transient transfection, electrophysiological recordings were performed.
Patch-clamp recordings were carried out with a HEKA EPC10 amplifier controlled by PatchMaster software (HEKA; https://www.heka.com/products/products_main.html#soft_pm) ([36]). Patch pipettes were prepared from borosilicate glass and fire-polished to the resistance of 3 to 8 MΩ by P-97 puller for whole-cell recordings. For single-channel recordings, patch pipettes were fire-polished to a higher resistance of 6 to 10 MΩ. Both bath solution and pipette solution contained 130 mM NaCl, 10 mM glucose, 0.2 mM EDTA, and 3 mM Hepes and were adjusted to pH 7.2 to 7.4 with NaOH. Whole-cell recordings and single-channel recordings were performed at ± 80 mV. The current was sampled at 10 kHz and filtered at 2.9 kHz. All recordings were performed at room temperature (25 °C). A gravity-driven system (RSC-200, Bio-Logic) with freely rotated perfusion tubes was used for the perfusion of ligands. Bath and ligand solutions were delivered through separate tubes to minimize the mixing of solutions. Patch pipette holding cells were placed in front of the perfusion tube outlet for perfusion. Igor Pro versions 5.05 and 9.05 (WaveMetrics; https://www.wavemetrics.com/products/igorpro) were used to analyze the data.

[1] = target: T2, TRPV3 L670A + L591A double mutant (Homo sapiens, UniProt Q8NET8, L591A/L670A); experiment: Whole-cell recording of TRPV3 L591A/L670A double mutant; format: cell-based; conditions: L670A introduced to L591A mutant
T2 construct: YFP or GFP; expressed in transfected cells; host or cells: HEK293T
T2 sequence (Q8NET8 1-790 L591A/L670A): T1 sequence (Q8NET8 1-790) with L591A, L670A
Excerpt: As we mentioned above, HCQ may act as a pore blocker of TRPV3. To probe the binding configuration of HCQ to TRPV3, we carried out molecular docking using Rosetta suite (https://rosettacommons.org) ([21]) and validated the docking models with point mutations in TRPV3 (Fig. 4A). […] Furthermore, when we introduced L670A to L591A mutant, we also observed a left shift on the concentration–response curve on this double mutant as compared to L591A mutant (Fig. 4H).
Figure 4 Residues of the pore domain are critical for HCQ inhibition on TRPV3.A, left panel, docking model of HCQ to the pore domain of TRPV3 structure (6uw4). Right panels, top view and side view of the HCQ-binding pocket. B-J, representative whole-cell recording of TRPV3 and mutants in response to 1 mM 2-APB, the mixture of 1 mM 2-APB and concentration gradients of HCQ with the holding potential of ± 80 mV. K, concentration–response curves of HCQ in WT TRPV3 and mutants (n = 3–5 cells). L, quantification of the inhibitory ratio of HCQ (100 μM) on WT, L591A, and N671Q. Data are presented as mean ± SEM (n = 3–6 cells); F (2, 10) = 8.115, p = 0.0081 by one-way ANOVA using Dunnett’s multiple comparisons test. ∗∗, p = 0.0070 WT versus L591A; ∗, p = 0.0100 WT versus N671Q. 2-APB, 2-aminoethoxydiphenylborate; HCQ, hydroxychloroquine; TRP, transient receptor potential; TRPV3, transient receptor potential vanilloid 3 channel. […]

TRPV3 channel open probability (Po) (TRPV3; 50 μM HCQ with 1 mM 2-APB): 0.50 ± 0.03
TRPV3 channel open probability (Po) (TRPV3; 100 μM HCQ with 1 mM 2-APB): 0.13 ± 0.04
single-channel conductance (TRPV3; HCQ with 1 mM 2-APB, HCQ concentration not stated in the sentence (50 and 100 μM tested)): 37.97 ± 2.96 pS
shift of concentration–response curve on double mutant as compared to L591A mutant [1]: left shift
Compound: CCN(CCO)CCCC(C)Nc1ccnc2cc(Cl)ccc12 (stereo not shown) [HCQ, hydroxychloroquine]
